# Reference: the supplement of paper PMC10307832
# Key:
# Assay in all cases: relative viability (nuclei count vs DMSO), 5 days (fraction); higher = more cells survive
# DM3189 + Decitabine = compound: C1CN(CCN1)C2=CC=C(C=C2)C3=CN4C(=C(C=N4)C5=CC=NC6=CC=CC=C56)N=C3 [DM3189] + Nc1ncn([C@H]2C[C@H](O)[C@@H](CO)O2)c(=O)n1 [Decitabine] (partner 2 µM)
# Summary of the method: (§1)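 Relative viability equals treated-well nuclei counts divided by vehicle-well nuclei counts. Counts came from 4× images of lung cancer cell lines grown in 1536-well plates for 5 days after pin-tool dosing on the day after seeding. Dosing used one drug alone or a fixed anchor-drug dose plus five library-drug doses (not always all listed) in √10 steps, and values are medians of duplicate plates.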
# DM3189 + Linsitinib = compound: C1CN(CCN1)C2=CC=C(C=C2)C3=CN4C(=C(C=N4)C5=CC=NC6=CC=CC=C56)N=C3 [DM3189] + C[C@]1(O)C[C@@H](c2nc(-c3ccc4ccc(-c5ccccc5)nc4c3)c3c(N)nccn32)C1 [Linsitinib] (partner 1 µM)
# Summary of the method: as §1
# DM3189 + AZD7762 = compound: C1CN(CCN1)C2=CC=C(C=C2)C3=CN4C(=C(C=N4)C5=CC=NC6=CC=CC=C56)N=C3 [DM3189] + NC(=O)Nc1cc(-c2cccc(F)c2)sc1C(=O)N[C@H]1CCCNC1 [AZD7762] (partner 0.2 µM)
# Summary of the method: as §1
# DM3189 + Phenformin = compound: C1CN(CCN1)C2=CC=C(C=C2)C3=CN4C(=C(C=N4)C5=CC=NC6=CC=CC=C56)N=C3 [DM3189] + N=C(N)NC(=N)NCCc1ccccc1 [Phenformin] (partner 250 µM)
# Summary of the method: as §1
# DM3189 + Bortezomib = compound: C1CN(CCN1)C2=CC=C(C=C2)C3=CN4C(=C(C=N4)C5=CC=NC6=CC=CC=C56)N=C3 [DM3189] + CC(C)C[C@H](NC(=O)[C@H](Cc1ccccc1)NC(=O)c1cnccn1)B(O)O [Bortezomib] (partner 0.002 µM)
# Summary of the method: as §1
Cell Line,relative viability (DM3189 + Decitabine; first compound 0.08 µM),relative viability (DM3189 + Decitabine; first compound 0.253 µM),relative viability (DM3189 + Decitabine; first compound 0.8 µM),relative viability (DM3189 + Decitabine; first compound 2.53 µM),relative viability (DM3189 + Linsitinib; first compound 0.08 µM),relative viability (DM3189 + Linsitinib; first compound 0.253 µM),relative viability (DM3189 + Linsitinib; first compound 0.8 µM),relative viability (DM3189 + Linsitinib; first compound 2.53 µM),relative viability (DM3189 + AZD7762; first compound 0.08 µM),relative viability (DM3189 + AZD7762; first compound 0.253 µM),relative viability (DM3189 + AZD7762; first compound 0.8 µM),relative viability (DM3189 + AZD7762; first compound 2.53 µM),relative viability (DM3189 + Phenformin; first compound 0.08 µM),relative viability (DM3189 + Phenformin; first compound 0.253 µM),relative viability (DM3189 + Phenformin; first compound 0.8 µM),relative viability (DM3189 + Phenformin; first compound 2.53 µM),relative viability (DM3189 + Bortezomib; first compound 0.08 µM),relative viability (DM3189 + Bortezomib; first compound 0.253 µM),relative viability (DM3189 + Bortezomib; first compound 0.8 µM),relative viability (DM3189 + Bortezomib; first compound 2.53 µM)
HOP-62,0.214,0.203,0.193,0.21,1.05,0.901,0.98,1.03,0.672,0.646,0.621,0.596,0.691,0.722,0.6,0.682,1.18,0.927,0.393,0.58
LC-2-ad,0.851,0.77,0.826,0.916,0.858,0.847,0.819,0.855,0.927,0.872,0.872,0.8,0.689,0.531,0.533,0.584,0.975,0.934,0.943,1.06
LCLC-97TM1,0.263,0.201,0.197,0.228,0.162,0.188,0.145,0.181,0.275,0.177,0.207,0.171,0.459,0.364,0.433,0.399,1.26,0.573,0.531,0.366
LCLC-103H,0.765,0.746,0.691,0.721,1.1,1.07,1.05,1.17,0.909,0.817,0.764,0.818,0.357,0.315,0.286,0.304,1.14,0.939,0.955,1.07
LOU-NH91,0.854,0.799,0.739,0.863,0.901,0.956,0.802,0.923,0.825,0.73,0.642,0.683,0.886,0.689,0.706,0.747,0.487,0.529,0.463,0.443
LU99A,1.09,0.837,–,0.777,0.49,0.49,–,0.445,0.379,0.362,–,0.283,0.964,0.735,–,0.8,1.23,1.01,–,1.04
LXF-289,0.391,0.389,0.438,0.421,0.977,0.939,0.908,1.06,1.17,1.2,1.1,1.14,0.529,0.491,0.501,0.527,1,0.929,0.988,1.11
NCI-H23,0.308,0.304,0.284,0.314,0.649,0.588,0.445,0.742,0.231,0.237,0.128,0.265,0.865,0.761,0.643,0.826,1.18,0.825,0.928,1.02
NCI-H322M,0.628,0.683,0.767,0.696,0.891,0.863,0.921,0.977,0.662,0.644,0.662,0.519,0.866,0.782,0.651,0.652,1.25,1.38,1.19,1.23
NCI-H441,0.307,0.227,0.216,0.219,0.587,0.511,0.518,0.548,1.25,0.862,1.16,1.35,0.825,0.959,0.794,0.738,0.656,0.604,0.447,0.645
NCI-H460,0.449,0.468,0.438,0.555,1.21,0.879,0.708,0.353,0.784,0.524,0.395,0.691,0.737,0.535,0.451,0.545,1.19,1.07,1.06,0.255
NCI-H596,1.09,1.09,0.842,1.19,1.15,1.13,1.05,1.14,1.15,1.07,1.08,0.986,0.724,0.802,0.78,0.709,1.34,0.969,1.03,1.28
NCI-H647,0.365,0.43,0.418,0.403,0.966,0.946,1,1.17,0.626,0.408,0.4,0.277,0.664,0.4,0.546,0.228,1.08,0.871,0.667,0.35
NCI-H650,0.288,0.313,0.242,0.292,1.12,0.84,0.659,0.763,0.937,0.956,1.05,1,0.518,0.497,0.47,0.489,1,0.765,0.635,0.655
NCI-H727,0.886,0.769,0.846,0.976,0.255,0.326,–,0.259,0.613,0.602,0.629,0.526,0.628,0.517,–,0.533,1.07,0.854,–,0.716
NCI-H838,0.446,0.458,0.431,0.525,0.969,0.918,0.716,0.87,0.979,0.856,0.816,0.895,0.775,0.507,0.471,0.385,1,0.64,0.633,0.92
